Assay results published in patent US8106055B2, “Substituted amide compounds” (Gruenenthal GmbH, priority 2007, dated 2012).

molecular target: T1, bradykinin 1 receptor (B1R) of the rat (Rattus norvegicus, UniProt P97583); experiment: Functional investigation on the rat bradykinin 1 receptor (B1R), Ca2+ FLIPR assay in CHO K1 rB1R cells; assay type: cell-based; settings: CHO-K1, B1R antagonism rat; test substance 10 μM; Ca2+ FLIPR, CHO K1 rB1R cells; read-out: B1R Ant. r [10 μM] % Inhibition
T1 construct: expressed in transfected cells; host or cells: CHO K1 cells
T1 sequence (P97583 1-337): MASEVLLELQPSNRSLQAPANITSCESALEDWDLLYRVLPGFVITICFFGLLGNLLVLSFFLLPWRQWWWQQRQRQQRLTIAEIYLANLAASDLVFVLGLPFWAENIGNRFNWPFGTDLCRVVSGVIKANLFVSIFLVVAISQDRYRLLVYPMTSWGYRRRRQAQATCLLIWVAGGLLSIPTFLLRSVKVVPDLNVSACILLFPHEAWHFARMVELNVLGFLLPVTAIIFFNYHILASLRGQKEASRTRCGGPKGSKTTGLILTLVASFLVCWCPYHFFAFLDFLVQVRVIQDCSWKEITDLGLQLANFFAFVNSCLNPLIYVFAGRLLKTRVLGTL
Method in brief: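 Stably transfected CHO K1 cells loaded with Fluo-4; FLIPR Ca2+ fluorescence peak (ex 488/em 540 nm). Compound added first (agonism vs Lys-Des-Arg9-bradykinin ≥50 nM human, Des-Arg9-bradykinin 10 μM rat), then after 10-20 min agonist at EC80; antagonism as % inhibition, IC50 from concentration series, n=2-3, N≥2.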

**Q.** For CN(C)C(c1cccs1)C1CCC(CCNC(=O)COCCN(C)S(=O)(=O)c2cccc(C(F)(F)F)c2)CC1 (centres unmarked) [Example 32, N-(2-(4-((dimethylamino)(thiophen-2-yl)methyl)cyclohexyl)ethyl)-2-(2-(N-methyl-3-(trifluoromethyl)phenylsulfonamido)ethoxy)acetamide], which inhibition at 10 µM is on record?
**A.** The inhibition at 10 µM was 14%.

**Q.** CN(C)C(c1ccccc1)C1CCC(NC(=O)COCCN(C)S(=O)(=O)c2ccc(Cl)cc2Cl)CC1 (centres unmarked) [Example 33, 2-(2-(2,4-dichloro-N-methylphenylsulfonamido)ethoxy)-N-(4-((dimethylamino)(phenyl)methyl)cyclohexyl)acetamide] was tested. Which inhibition at 10 µM did it give?
**A.** Its inhibition at 10 µM is 9%.

**Q.** How did the inhibition at 10 µM turn out when CN(C)C(c1cccs1)C1CCC(CNC(=O)COC2CCN(S(=O)(=O)c3cccc(C(F)(F)F)c3)C2)CC1 (centres unmarked) [Example 25, N-((4-((dimethylamino)(thiophen-2-yl)methyl)cyclohexyl)methyl)-2-(1-(3-(trifluoromethyl)phenylsulfonyl)pyrrolidin-3-yloxy)acetamide] was run?
**A.** The inhibition at 10 µM was 30%.

**Q.** Which inhibition at 10 µM does the source give for COc1cc(C)c(S(=O)(=O)N2CCCC(OCC(=O)NC3CCC(C(c4cccs4)N(C)C)CC3)C2)c(C)c1C (centres unmarked) [Example 144, N-(4-((dimethylamino)(thiophen-2-yl)methyl)cyclohexyl)-2-(1-(4-methoxy-2,3,6-trimethylphenylsulfonyl)piperidin-3-yloxy)acetamide] here?
**A.** The inhibition at 10 µM was 4%.

**Q.** For COc1cc(C)c(S(=O)(=O)N2CCC(OCC(=O)NCC3CCC(C(c4ccccc4)N(C)C)CC3)C2)c(C)c1 (centres unmarked) [Example 173, N-((4-((dimethylamino)(phenyl)methyl)cyclohexyl)methyl)-2-(1-(4-methoxy-2,6-dimethylphenylsulfonyl)pyrrolidin-3-yloxy)acetamide], which inhibition at 10 µM is on record?
**A.** Its inhibition at 10 µM is 104%.
